From PubChem BioAssay AID248 (DTP/NCI, 2004)
“And” between values parts separate entries of the source, which are not always exact repeats. Identical values can stand only once. Toxic doses and inconclusive results are not listed.

System: L1210 leukemia ip in BDF1 mice, survival T/C
Experiment: NCI In Vivo Anticancer Drug Screen. Data for tumor model L1210 Leukemia (intraperitoneal) in B6D2F1 (BDF1) mice
Details: endpoint: mean survival time, higher = longer survival
Procedure, shortened: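 Value reflects the ratio of survival in compound-treated mice to survival in vehicle-treated controls, with both groups carrying the same transplanted tumor.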

[1] = dose: 100.0 mg/kg/injection, schedule: Q04DX003 (ip), vehicle: saline with Tween-80
[2] = dose: 200.0 mg/kg/injection, schedule: Q04DX003 (ip), vehicle: saline with Tween-80
[3] = dose: 400.0 mg/kg/injection, schedule: Q04DX003 (ip), vehicle: saline with Tween-80
[4] = dose: 100.0 mg/kg/injection, schedule: Q01DX009 (ip), vehicle: saline
[5] = dose: 100.0 mg/kg/injection, schedule: Q04DX003 (ip), vehicle: saline
[6] = dose: 200.0 mg/kg/injection, schedule: Q04DX003 (ip), vehicle: saline
[7] = dose: 100.0 mg/kg/injection, schedule: Q01DX009 (ip), vehicle: Klucel (hydroxypropylcellulose) (HPC)
[8] = dose: 200.0 mg/kg/injection, schedule: Q01DX009 (ip), vehicle: Klucel (hydroxypropylcellulose) (HPC)
[9] = dose: 400.0 mg/kg/injection, schedule: Q01DX009 (ip), vehicle: Klucel (hydroxypropylcellulose) (HPC)
[10] = dose: 50.0 mg/kg/injection, schedule: Q01DX001 (ip), vehicle: carboxymethylcellulose (CMC)
[11] = dose: 100.0 mg/kg/injection, schedule: Q01DX001 (ip), vehicle: carboxymethylcellulose (CMC)
[12] = dose: 200.0 mg/kg/injection, schedule: Q01DX001 (ip), vehicle: carboxymethylcellulose (CMC)
[13] = dose: 100.0 mg/kg/injection, schedule: Q04DX003 (ip), vehicle: Klucel (hydroxypropylcellulose) (HPC)
[14] = dose: 200.0 mg/kg/injection, schedule: Q04DX003 (ip), vehicle: Klucel (hydroxypropylcellulose) (HPC)
[15] = dose: 400.0 mg/kg/injection, schedule: Q04DX003 (ip), vehicle: Klucel (hydroxypropylcellulose) (HPC)

## CC(=O)Nc1cc(C(=O)O)cc(NC(C)=O)c1C
[1]
  T/C: 103 % of control
[2]
  T/C: 98 % of control
[3]
  T/C: 101 % of control

## CCCn1c(=S)[nH]c2ccccc2c1=O
[4]
  T/C: 95 % of control
[5]
  T/C: 88 % of control
dose: 200.0 mg/kg/injection, schedule: Q01DX009 (ip), vehicle: saline
  T/C: 107 % of control
[6]
  T/C: 86 % of control
dose: 400.0 mg/kg/injection, schedule: Q01DX009 (ip), vehicle: saline
  T/C: 101 % of control
dose: 400.0 mg/kg/injection, schedule: Q04DX003 (ip), vehicle: saline
  T/C: 96 % of control

## Cc1ccc([N+](=O)[O-])cc1NC(=O)Nc1cc(Cl)ccc1O
[7]
  T/C: 93 % of control
[8]
  T/C: 96 % of control
[9]
  T/C: 95 % of control

## CC(=O)NNc1ccc([N+](=O)[O-])cn1
dose: 100.0 mg/kg/injection, schedule: Q01DX001 (ip), vehicle: saline
  T/C: 100 % of control
dose: 200.0 mg/kg/injection, schedule: Q01DX001 (ip), vehicle: saline
  T/C: 100 % of control
dose: 400.0 mg/kg/injection, schedule: Q01DX001 (ip), vehicle: saline
  T/C: 100 % of control

## O=C1CCC(=O)N1Nc1ccccc1
[10]
  T/C: 104 % of control
[11]
  T/C: 96 % of control
[12]
  T/C: 102 % of control
dose: 400.0 mg/kg/injection, schedule: Q01DX001 (ip), vehicle: carboxymethylcellulose (CMC)
  T/C: 98 % of control

## COc1cc(NC(=O)CN(CCCl)CCCl)cc(OC)c1OC
dose: 13.3 mg/kg/injection, schedule: Q01DX009 (ip), vehicle: carboxymethylcellulose (CMC)
  T/C: 116 % of control
dose: 20.0 mg/kg/injection, schedule: Q01DX009 (ip), vehicle: carboxymethylcellulose (CMC)
  T/C: 100 % of control
dose: 25.0 mg/kg/injection, schedule: Q01DX001 (ip), vehicle: carboxymethylcellulose (CMC)
  T/C: 122 % of control
dose: 30.0 mg/kg/injection, schedule: Q01DX009 (ip), vehicle: carboxymethylcellulose (CMC)
  T/C: 124 % of control
dose: 44.4 mg/kg/injection, schedule: Q01DX009 (ip), vehicle: carboxymethylcellulose (CMC)
  T/C: 123 % of control
dose: 45.0 mg/kg/injection, schedule: Q01DX009 (ip), vehicle: carboxymethylcellulose (CMC)
  T/C: 107 % of control
[10]
  T/C: 116 % of control
dose: 66.6 mg/kg/injection, schedule: Q01DX009 (ip), vehicle: carboxymethylcellulose (CMC)
  T/C: 110 % of control
dose: 89.0 mg/kg/injection, schedule: Q01DX001 (ip), vehicle: carboxymethylcellulose (CMC)
  T/C: 112 % of control
dose: 89.0 mg/kg/injection, schedule: Q01DX001 (ip), vehicle: saline
  T/C: 118 % of control
[11]
  T/C: 119 % of control
dose: 100.0 mg/kg/injection, schedule: Q01DX009 (ip), vehicle: carboxymethylcellulose (CMC)
  T/C: 86 % of control
[4]
  T/C: 170 % of control
dose: 133.0 mg/kg/injection, schedule: Q01DX001 (ip), vehicle: carboxymethylcellulose (CMC)
  T/C: 102 % of control and 115 % of control
dose: 150.0 mg/kg/injection, schedule: Q01DX009 (ip), vehicle: carboxymethylcellulose (CMC)
  T/C: 88 % of control
dose: 150.0 mg/kg/injection, schedule: Q01DX009 (ip), vehicle: saline
  T/C: 90 % of control
[12]
  T/C: 114 % of control and 120 % of control
dose: 300.0 mg/kg/injection, schedule: Q01DX001 (ip), vehicle: carboxymethylcellulose (CMC)
  T/C: 107 % of control

## CCCCCCCCCCCCCCCCCCC1=NCCN1
dose: 2.34 mg/kg/injection, schedule: Q01DX009 (ip), vehicle: saline
  T/C: 101 % of control
dose: 4.68 mg/kg/injection, schedule: Q01DX009 (ip), vehicle: saline
  T/C: 96 % of control
dose: 9.37 mg/kg/injection, schedule: Q01DX009 (ip), vehicle: saline
  T/C: 86 % of control
dose: 18.75 mg/kg/injection, schedule: Q04DX003 (ip), vehicle: saline
  T/C: 90 % of control
dose: 75.0 mg/kg/injection, schedule: Q01DX001 (ip), vehicle: acetone
  T/C: 97 % of control

## Clc1nc(Br)[nH]c1Cl
dose: 1.56 mg/kg/injection, schedule: Q01DX009 (ip), vehicle: Klucel (hydroxypropylcellulose) (HPC)
  T/C: 100 % of control
dose: 3.12 mg/kg/injection, schedule: Q01DX009 (ip), vehicle: Klucel (hydroxypropylcellulose) (HPC)
  T/C: 107 % of control
dose: 6.25 mg/kg/injection, schedule: Q01DX009 (ip), vehicle: Klucel (hydroxypropylcellulose) (HPC)
  T/C: 100 % of control and 113 % of control

## O=C(O)/C=C/c1c2ccc(=O)cc-2oc2cc(O)ccc12
[13]
  T/C: 96 % of control
[14]
  T/C: 91 % of control
[15]
  T/C: 105 % of control

## CC(=O)C1=C(C)NC(C)=C(C(C)=O)C1c1ccccc1
[1]
  T/C: 96 % of control
[2]
  T/C: 96 % of control
[3]
  T/C: 98 % of control

## CSC(NC(=O)c1ccccc1)C(N)=O (centres undefined)
dose: 100.0 mg/kg/injection, schedule: Q04DX002 (ip), vehicle: Klucel (hydroxypropylcellulose) (HPC)
  T/C: 101 % of control
dose: 200.0 mg/kg/injection, schedule: Q04DX002 (ip), vehicle: Klucel (hydroxypropylcellulose) (HPC)
  T/C: 109 % of control
dose: 400.0 mg/kg/injection, schedule: Q04DX002 (ip), vehicle: Klucel (hydroxypropylcellulose) (HPC)
  T/C: 97 % of control

## [I][Hg][CH2]C1COCC([CH2][Hg][I])O1.[I][Hg][CH2]C1COCC([CH2][Hg][I])O1 (centres undefined)
dose: 20.0 mg/kg/injection, schedule: Q04DX003 (ip), vehicle: carboxymethylcellulose (CMC)
  T/C: 100 % of control
dose: 40.0 mg/kg/injection, schedule: Q01DX001 (ip), vehicle: carboxymethylcellulose (CMC)
  T/C: 91 % of control
dose: 40.0 mg/kg/injection, schedule: Q04DX003 (ip), vehicle: carboxymethylcellulose (CMC)
  T/C: 105 % of control
dose: 80.0 mg/kg/injection, schedule: Q01DX001 (ip), vehicle: carboxymethylcellulose (CMC)
  T/C: 93 % of control

## CCCCNC(=O)Nc1ccc(OC)cc1Cl
[7]
  T/C: 102 % of control
[13]
  T/C: 90 % of control
[8]
  T/C: 106 % of control
[14]
  T/C: 97 % of control
[9]
  T/C: 87 % of control
[15]
  T/C: 92 % of control

## CCC(=O)C(CCCN(C)C)(c1ccccc1)c1ccccc1
dose: 5.0 mg/kg/injection, schedule: Q01DX001 (ip), vehicle: saline
  T/C: 107 % of control
dose: 10.0 mg/kg/injection, schedule: Q01DX001 (ip), vehicle: saline
  T/C: 104 % of control
dose: 20.0 mg/kg/injection, schedule: Q01DX001 (ip), vehicle: saline
  T/C: 93 % of control
dose: 40.0 mg/kg/injection, schedule: Q01DX001 (ip), vehicle: saline
  T/C: 98 % of control

## CCOC(=O)C(Cc1ccc(Cl)c(Cl)c1)(NC(C)=O)C(=O)OCC
dose: 50.0 mg/kg/injection, schedule: Q04DX003 (ip), vehicle: saline with Tween-80
  T/C: 102 % of control
[1]
  T/C: 94 % of control
[2]
  T/C: 96 % of control

## CSc1nnc(-c2ccncc2)s1
[5]
  T/C: 104 % of control
[6]
  T/C: 107 % of control

## NCCCS
dose: 75.0 mg/kg/injection, schedule: Q01DX001 (ip), vehicle: saline
  T/C: 96 % of control
dose: 150.0 mg/kg/injection, schedule: Q01DX001 (ip), vehicle: saline
  T/C: 96 % of control

## Oc1ccccc1C=NCCN=Cc1ccccc1O.[Ni]
dose: 88.0 mg/kg/injection, schedule: Q01DX001 (ip), vehicle: other
  T/C: 109 % of control
dose: 100.0 mg/kg/injection, schedule: Q01DX001 (ip), vehicle: other
  T/C: 100 % of control
dose: 133.0 mg/kg/injection, schedule: Q01DX001 (ip), vehicle: other
  T/C: 107 % of control
dose: 200.0 mg/kg/injection, schedule: Q01DX001 (ip), vehicle: other
  T/C: 108 % of control

## COc1ccc(C(=O)CBr)c(OC)c1C
dose: 12.5 mg/kg/injection, schedule: Q01DX009 (ip), vehicle: Klucel (hydroxypropylcellulose) (HPC)
  T/C: 94 % of control
dose: 12.5 mg/kg/injection, schedule: Q04DX003 (ip), vehicle: Klucel (hydroxypropylcellulose) (HPC)
  T/C: 100 % of control
dose: 25.0 mg/kg/injection, schedule: Q01DX009 (ip), vehicle: Klucel (hydroxypropylcellulose) (HPC)
  T/C: 91 % of control
dose: 25.0 mg/kg/injection, schedule: Q04DX003 (ip), vehicle: Klucel (hydroxypropylcellulose) (HPC)
  T/C: 105 % of control
dose: 50.0 mg/kg/injection, schedule: Q04DX003 (ip), vehicle: Klucel (hydroxypropylcellulose) (HPC)
  T/C: 96 % of control
